From US9315531B2, “Titanocene-gold derivatives comprising thiolato ligands” (Research Foundation of the City University of New York, priority 2014, dated 2016)

Columns and labels:
Caki-1 cells = format: cell-based, human; conditions: Caki-1, 5 μM
Description: Anti-invasive properties were evaluated by using a wound-healing scratch assay.
Cell migration: For wound healing assays, Caki-1 cells were seeded in 6 cm dishes at a density of 0.8×10^6 in complete media, then grown to confluence for twenty-four hours at 37° C. (5% CO2), then cross-shape wounds/scratches were performed in the monolayer using a sterile 10 μl pipette tip. […] To quantify cell migration, the area of the initial wound (T0) is compared with the area of the healing wound at three time points after the scratch is introduced. Percent Migration=[area of original wound−area of wound during healing]/Area of original wound]×100.

Caki-1 = test: Cell viability assay (XTT), Caki-1; format: cell-based, human; conditions: 72 h incubation
Description: Cell Culture: Human renal cell carcinoma lines A498, Caki-1 and UO31, as well as the human prostate carcinoma cell lines DU145 and PC3 were newly obtained for these studies from the American Type Culture Collection (ATCC) (Manassas, Va., USA) and cultured in Roswell Park Memorial Institute (RPMI-1640) (Mediatech Inc., Manassas, Va.) media containing 10% fetal bovine serum (FBS, Life Technologies, Grand Island, N.Y.), 1% Minimum Essential Media (MEM) nonessential amino acids (NEAA, Mediatech) and 1% penicillin-streptomycin (PenStrep, Mediatech). HEK-293T cells were newly purchased from ATCC (Manassas, Va., USA) and maintained in Dulbecco's modified Eagle's medium (DMEM) (Mediatech) supplemented with 10% FBS, 1% NEAA and 1% PenStrep. Normal human renal epithelial cells (RPTC) were purchased from Lifeline Cell Technology (Lifeline Cell Technology, Frederick, Md., USA) and maintained in Lifeline's Renal Life Medium from Lifeline Cell Technology supplemented with 2.4 mM L-glutamine, 5 μg/mL rh insulin, 1.0 nM epinephrine, 10 nM triiodothyronine, 0.1 μg/mL hydrocortisone hemisuccinate, 10 ng/mL rhEGF, 0.50% FBS, 5 μg/mL transferrin PS. All cells were cultured at 37° C. and 5% CO2 in a humidified incubator.
The optical absorbance of each well in a 96-well plate was quantified using BioTek ELx808 absorbance microplate reader (BioTek Winooski, Vt.) set at 450 nm wavelength. The percentage of surviving cells was calculated from the ratio of absorbance of treated to untreated cells.

[1] = end of the study
Description: At the end of the study, liver, kidney and tumor of the animals were harvested, weighed and transferred into glass vials. One ml of water was added to each samples and subjected to ultrasonic tissue disruption at 15 W power for 1 minute. The tissue homogenates were frozen at −80° C. for two hours and lyophilized. The lyophilized product was heated at 90° C. with the concentrated acid mix (described above) for five hours, cooled, diluted with water and analyzed for titanium and gold by ICP-MS.

plasmid pBR322 DNA = test: Electrophoresis mobility shift assay; format: binding; conditions: metal/DNAbp ratios 0.25-2.0, 37° C., 20 h
Description: Agarose gel electrophoresis assays were performed whereby decreased electrophoretic mobility of both forms were taken as evidence of metal-DNA binding.
Mobility Shift Assay: 10 μL aliquots of pBR322 plasmid DNA (20 μg/mL) in buffer (5 mM Tris/HCl, 50 mM NaClO4, pH=7.39) were incubated with different concentrations of the compounds (2, 3, 4, 5), and titanocene dichloride) (in the range 0.25 and 4.0 metal complex:DNA bp) at 37° C. for 20 h in the dark. Samples of free DNA and cisplatin-DNA were prepared as controls. After the incubation period, the samples were loaded onto the 1% agarose gel. The samples were separated by electrophoresis for 1.5 h at 80 V in Tris-acetate/EDTA buffer (TAE). Afterwards, the gel was stained for 30 min with a solution of GelRed nucleic acid stain.

Substance: [(η-C5H5)2TiMe(μ-mba)Au(PPh3)] [Compound 2]
- inhibition of migration (Caki-1 cells): complete inhibition of migration
- IC50 (Caki-1): 120 ± 3 nM
- accumulation in liver and kidney [1]: accumulated in the liver and kidney to a more significant degree
- effect on electrophoretic mobility of plasmid DNA forms (plasmid pBR322 DNA): did not affect the mobility
